Measurements published in the NIST ThermoML archive (doi:10.1021/je0340755).

Experiment: xn = mol fraction of the nth substance listed
Details: 101.3 kPa, Liquid; for viscosity: Capillary tube (Ostwald / Ubbelohde) method

OCCCCO [1,4-butanediol] + O
Details | mass density, 298.15 K [kg/m3] | mass density, 308.15 K [kg/m3] | mass density, 318.15 K [kg/m3] | speed of sound, 298.15 K [m/s] | speed of sound, 308.15 K [m/s] | speed of sound, 318.15 K [m/s] | viscosity, 298.15 K [mPa·s] | viscosity, 308.15 K [mPa·s] | viscosity, 318.15 K [mPa·s]
x2 = 0.055 | 1013.64 | 1007.37 | 1001.62 | 1609 | 1591 | 1574.6 | 68.26 | 42.31 | 27.43
x2 = 0.1534 | 1015.1 | 1008.7 | 1002.81 | 1623.6 | 1604.6 | 1586.7 | 59.73 | 37.48 | 24.34
x2 = 0.2472 | 1016.59 | 1010.06 | 1004.04 | 1637.5 | 1617.7 | 1598.8 | 51.48 | 32.83 | 21.39
x2 = 0.3542 | 1018.46 | 1011.78 | 1005.59 | 1658.6 | 1637.1 | 1615.4 | 42.26 | 27.6 | 18.04
x2 = 0.4531 | 1020.08 | 1013.29 | 1006.95 | 1678.2 | 1655.1 | 1632.8 | 33.95 | 22.83 | 15
x2 = 0.498 | 1020.71 | 1013.88 | 1007.49 | 1686 | 1662.5 | – | 30.26 | 20.69 | 13.63
x2 = 0.5578 | 1021.37 | 1014.52 | – | 1695.3 | 1671 | – | 25.51 | 17.9 | 11.84
x2 = 0.6513 | 1021.78 | 1014.99 | – | 1707.7 | 1684.1 | – | 18.65 | 13.72 | 9.148
x2 = 0.7496 | 1020.65 | 1014.15 | – | 1715.9 | 1693 | – | 12.57 | 9.702 | 6.533
x2 = 0.8475 | 1016.21 | 1010.43 | – | 1702.6 | 1685.5 | – | 7.83 | 6.132 | 4.179
x2 = 0.9081 | 1010.66 | 1005.69 | – | 1663.1 | 1655 | – | 5.31 | 4.059 | 2.8
x2 = 0.9152 | 1009.83 | 1004.98 | – | 1655.8 | 1648.7 | – | 5.014 | 3.816 | 2.639
x2 = 0.9253 | 1008.58 | 1003.91 | – | 1644.1 | 1639.7 | – | 4.588 | 3.469 | 2.408
x2 = 0.9355 | 1007.24 | 1002.76 | – | 1630.7 | 1628.5 | – | 4.148 | 3.115 | 2.173
x2 = 0.9543 | 1004.56 | 1000.47 | – | 1601.1 | 1604.2 | – | 3.3 | 2.45 | 1.732
x2 = 0.955 | 1004.46 | 1000.37 | – | 1599.8 | 1603 | – | 3.267 | 2.425 | 1.716
x2 = 0.9597 | 1003.74 | 999.76 | – | 1591.3 | 1595.9 | – | 3.045 | 2.255 | 1.604
x2 = 0.9699 | 1002.14 | 998.39 | – | 1571.1 | 1579.2 | – | 2.544 | 1.881 | 1.357
x2 = 0.9804 | 1000.42 | 996.91 | – | 1547.9 | 1560.2 | – | 2.001 | 1.487 | 1.098
x2 = 0.9901 | 998.77 | 995.5 | – | 1523.9 | 1540.2 | – | 1.468 | 1.112 | 0.853
x2 = 0.9924 | 998.37 | 995.16 | – | 1517.8 | 1535.5 | – | 1.337 | 1.022 | 0.794
x2 = 0.9955 | 997.83 | 994.7 | – | 1509.5 | 1528.5 | – | 1.158 | 0.899 | 0.714
